Legend:
[1] = target: NK1 receptor (Homo sapiens, UniProt P25103); test: neurokinin receptor binding assay (NK1)
Description: (§1) The in vitro and in vivo activity of the compounds of formula I can be determined by various procedures known in the art, such as a test for their ability to inhibit the activity of the NK1 agonist Substance P, an isolated hamster trachea NK2 assay, a test of the effect of NK1 antagonists on Substance P-induced airway microvascular leakage, measurement of NK2 activity in vivo in guinea pigs, measurement of bronchoconstriction due to NKA, and neurokinin receptor binding assay(s). NK3 activity is determined by following a procedure similar to that described in the literature, e.g., Molecular Pharmacol., 48 (1995), p. 711-716.
(§2) % Inhibition of neurokinin agonist activity is the difference between the percent of maximum specific binding (MSB) and 100%. The percent of MSB is defined by the following equation, wherein "dpm" is disintegrations per minute: % MSB =((dpm of unknown) - (dpm of nonspecific binding))/((dpm of total binding) - (dpm of nonspecific binding))X 100 [formula]

[2] = target: T1, NK2 receptor (Homo sapiens, UniProt P21452); test: neurokinin receptor binding assay (NK2)
T1 sequence (P21452 1-398): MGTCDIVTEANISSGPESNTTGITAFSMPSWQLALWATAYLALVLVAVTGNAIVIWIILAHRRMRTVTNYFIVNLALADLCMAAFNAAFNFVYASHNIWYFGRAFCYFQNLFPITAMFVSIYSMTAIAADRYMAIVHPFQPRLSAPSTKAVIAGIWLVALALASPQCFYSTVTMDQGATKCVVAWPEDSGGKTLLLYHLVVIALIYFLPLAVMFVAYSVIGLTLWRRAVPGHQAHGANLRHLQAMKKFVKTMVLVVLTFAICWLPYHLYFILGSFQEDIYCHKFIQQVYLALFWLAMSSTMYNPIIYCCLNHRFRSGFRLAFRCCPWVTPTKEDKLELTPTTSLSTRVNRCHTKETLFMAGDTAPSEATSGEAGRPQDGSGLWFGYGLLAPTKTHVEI
Description: as §1, with “711-716. Typical procedures for determining NK1 and NK2 activity are described in U.S. 5,696,267, incorporated herein by reference.” for “711-716.”
as §2
Using the test procedures known in the art, the following data (% inhibition or Ki) were obtained for preferred and/or representative compounds of formula I: […]

NK1 receptor, sequence (P25103 whole entry, species assumed): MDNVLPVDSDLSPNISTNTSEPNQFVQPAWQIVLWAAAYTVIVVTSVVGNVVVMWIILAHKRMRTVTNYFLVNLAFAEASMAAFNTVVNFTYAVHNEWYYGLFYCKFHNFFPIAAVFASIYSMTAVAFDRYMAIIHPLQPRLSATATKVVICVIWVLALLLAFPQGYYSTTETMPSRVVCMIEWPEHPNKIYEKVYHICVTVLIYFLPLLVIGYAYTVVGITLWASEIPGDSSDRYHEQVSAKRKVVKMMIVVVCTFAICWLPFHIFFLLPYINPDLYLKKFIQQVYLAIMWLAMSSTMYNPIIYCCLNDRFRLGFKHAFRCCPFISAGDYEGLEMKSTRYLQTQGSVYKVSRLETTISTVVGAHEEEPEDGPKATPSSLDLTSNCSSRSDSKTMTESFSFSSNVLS

Ki [1] | Ki [2] | Compound
1.2 nM | 1 nM | CO/N=C(\CN(C)C(=O)c1cc(Cl)cc(Cl)c1)[C@H](CCN1CCC(n2c(=O)[nH]c3ccccc32)CC1)c1ccc(Cl)c(Cl)c1 [Example 18A]
1 nM | 0.9 nM | CO/N=C(\CN(C)C(=O)c1cc(Cl)cc(Cl)c1)[C@H](CCN1CCC(N2CCCN(Cc3nn[nH]n3)C2=O)CC1)c1ccc(Cl)c(Cl)c1 [Example 6S]
– | 0.8 nM | CO/N=C(\CN(C)C(=O)c1cc(Cl)cc(Cl)c1)[C@H](CCN1CCC(N2CCCN(CC(C)(C)O)C2=O)CC1)c1ccc(Cl)c(Cl)c1 [Example 6K]
